Measured values published in EP0941220B1, “A PROCESS FOR RECOVERY OF ASCORBIC ACID” (Yissum Research And Development Company Of The Hebrew …, priority 1996, dated 1998).

Test: Temperature sensitivity of carboxylic acid extraction by 0.5 mol/kg Alamine 304 + 10% octanol in kerosene
Type: physicochemical
Conditions: distribution coefficient at 30°C divided by that at 75°C
Source text: Referring now to said patents and the teachings thereof, one finds that the process taught therein utilizes the effect of temperature on phosphoric and carboxylic acid extraction by amine-based extractants. The term "amine" as used herein means water-immiscible amine, with a total of at least 20 carbon atoms on its chains. Said patents teach that such amine-based extractants (ABE) lose much of their extraction efficiency upon temperature elevation. This loss of efficiency is referred to as "temperature sensitivity of extraction" (TS). The magnitude of this TS can be represented by the ratio of the distribution coefficient at the lower temperature (DT1) to the distribution coefficient at the higher temperature (DT2). High TS provides for the purification and the concentration of carboxylic acids through altering the temperature between extraction and back-extraction. The acid is extracted from a feed solution by an ABE at low temperature, and is then stripped or back-extracted with water at an elevated temperature. […] This process is referred to herein as the "temperature swing process" (TSP).

TS in Equilibrium with Aqueous Solutions of (mol/kg) 0.05 (0.05 mol/kg equilibrium aqueous phase): 1.7
TS in Equilibrium with Aqueous Solutions of (mol/kg) 0.2 (0.2 mol/kg equilibrium aqueous phase): 1.5
TS in Equilibrium with Aqueous Solutions of (mol/kg) 0.3 (0.3 mol/kg equilibrium aqueous phase): 1.3
TS in Equilibrium with Aqueous Solutions of (mol/kg) 0.475 (0.475 mol/kg equilibrium aqueous phase): 1.1
Compound: CCC(=O)O [Propionic, Propionic acid]
